This note sets out measurements from ChEMBL document CHEMBL1136432, “Discovery of potent imidazole and cyanophenyl containing farnesyltransferase inhibitors with improved oral bioavailability” (Bioorg Med Chem Lett, 2003).

What is called pEC50 is the EC50 on a negative log10 scale, so that one unit is a factor of ten. The term pIC50 denotes the negative decadic logarithm of the IC50, by convention in mol/L. The bioavailability is dose-corrected exposure relative to a reference, in per cent. Broadly, the Tmax is the time from dosing to the highest level. By Cmax is commonly meant the maximum level reached in the sampled fluid or tissue. The half-life is how long it takes for the measured level to halve. Usually AUC stands for the area under the concentration-time curve, a measure of exposure.

pEC50, pIC50: −log10 of the molar value.

One data set has as its system NIH3T3. Kind of data set: Concentration needed to reduce 50% of farnesylation in NIH3T3 H-ras cell line. The following applies: Mus musculus. Type of data set: functional, cell-based.
For data set [1], the target named is T1, Protein farnesyltransferase (Bos taurus, UniProt P29702+P49355). Kind of data set: Inhibition of transfer of [3H]FPP to biotin K-ras peptide (KKSKTKCVIM) catalyzed by bovine FTase. It is filed as protein-complex assay.
The nature of data set [2]: Oral bioavailability in monkey. To be noted: cercopithecidae, in vivo.
The nature of another data set: in vivo. The following applies: dog, po, 5 mg/kg.
Data set [3] addresses T1, Protein farnesyltransferase. In words: Inhibition of [3H]FPP transfer to biotin K-ras peptide (KKSKTKCVIM) by bovine FTase. Type of data set: protein-complex assay.
The target of data set [4] is Geranylgeranyl transferase type I (Bos taurus, UniProt P29702+Q5EAD5). In words: Inhibition of [3H]FPP transfer to biotin K-ras peptide (KKSKTKCVLL) catalyzed by bovine GGTase-I.
The nature of data set [5]: Pharmacokinetic (PK) property (Tmax) was determined in dog at the single dose of 1 mg/kg. Type of data set: ADME, organism-based, Canis lupus familiaris. On the set-up: dose 1 mg/kg. To be noted: in vivo.
The nature of data set [6]: Pharmacokinetic (PK) property (Cmax) was determined in dog at the single dose of 1 mg/kg. Type of data set: ADME, organism-based, Canis lupus familiaris. On the set-up: dose 1 mg/kg. The following applies: in vivo.
Data set [7] in a line: Half life in dog at the single oral dose of 1 mg/kg. To be noted: in vivo. It is filed as ADME, organism-based, Canis lupus familiaris. On the set-up: dose 1 mg/kg, route oral.
Data set [8] in a line: Pharmacokinetic (PK) property (AUC) was determined in dog at the single oral dose of 1 mg/kg. It is filed as ADME, organism-based, Canis lupus familiaris. Also on record: dose 1 mg/kg, route oral. To be noted: in vivo.

Description for in vivo: Oral bioavailability in dog (dose 5 mg/kg)

In the data set on NIH3T3, `Cn1cncc1C(OCc1ccc(C#N)cc1-c1ccc(F)c(Cl)c1)c1ccc(C#N)nc1` (stereo unspecified) gave a pEC50 of 7.34. This compound also showed a pIC50 in data set [1] of 9.00. For `Cn1cncc1C(OCc1ccc(C#N)nc1-c1cc(F)cc(F)c1)c1ccc(C#N)cc1` (stereo unspecified), in that order: 8.66 and 9.15. Consider `Cn1cncc1C(OCc1ccc(C#N)cn1)c1ccc(C#N)c(-c2cccc3ccccc23)c1` (stereo unspecified), for which the negative-log EC50 (pEC50) in the data set on NIH3T3 is 8.22. Also, in data set [1], the pIC50 is 9.37. `Cn1cncc1C(OCc1nc(N2CCC(C(N)=O)CC2)c(C#N)cc1-c1cccc(Cl)c1)c1ccc(C#N)cc1` (stereo unspecified) showed a negative-log EC50 (pEC50) in the data set on NIH3T3 of 8.82. In data set [1], this compound showed a pIC50 of 9.14. In turn, `Cn1cncc1C(OCc1nc(Cl)c(C#N)cc1-c1cccc(Cl)c1)c1ccc(C#N)cc1` (stereo unspecified) gave a pEC50 in the data set with NIH3T3 of 7.54. Regarding `Cn1cncc1C(OCc1ccc(C#N)cc1-c1cccc(Cl)c1)c1ccc(C#N)nc1` (stereo unspecified), the pEC50 in the data set on NIH3T3 is 8.68. The compound further showed a pIC50 in [1] of 9.12. In the same order, the values of `Cn1cncc1C(OCc1ccc(C#N)cc1-c1ccc2c(c1)OCO2)c1ccc(C#N)nc1` (stereo unspecified) are 8.46 and 9.08. In turn, `Cn1cncc1C(OCc1ccc(C#N)nc1-c1cccc(OC(F)(F)F)c1)c1ccc(C#N)cc1` (stereo unspecified) showed a negative logarithm of the EC50 (pEC50) in the data set on NIH3T3 of 8.70. In data set [1], this compound had a negative-log IC50 (pIC50) of 9.74. In the same order, the values of `COc1cccc(-c2cc(C#N)ccc2COC(c2ccc(C#N)nc2)c2cncn2C)c1` (stereo unspecified) are 7.70 and 9.06. For `Cn1cncc1C(OCc1ccc(C#N)cc1-c1cccc(OC(F)(F)F)c1)c1ccc(C#N)nc1` (stereo unspecified), in that order: 7.62 and 9.40. Compound `Cn1cncc1C(OCc1ccc(C#N)c(-c2ccc(Cl)cc2)n1)c1ccc(C#N)cc1` (stereo unspecified) had a pIC50 in data set [1] of 7.60. For `Cn1cncc1C(OCc1nc(N2CCN(C(=O)OC(C)(C)C)CC2)c(C#N)cc1-c1cccc(Cl)c1)c1ccc(C#N)cc1` (stereo unspecified), the negative logarithm of the EC50 (pEC50) in the data set on NIH3T3 was 8.35. The compound `Cn1cncc1C(OCc1ccc(C#N)nc1-c1ccc2ccccc2c1)c1ccc(C#N)cc1` (stereo unspecified) showed a pEC50 in the data set with NIH3T3 of 8.13. Moreover, the pIC50 in data set [1] is 9.80. In the case of `Cn1cncc1C(OCc1ccc(C#N)cc1)c1ccc(C#N)c(-c2cccc3cccnc23)c1` (stereo unspecified), the bioavailability in [2] turned out to be 92%; in the data set “in vivo”, 53%. For the same compound, the pEC50 in the data set on NIH3T3 was 8.43. The compound further gave a pIC50 in data set [1] of 8.70.

Regarding `Cn1cncc1C(OCc1ccc(C#N)cc1)c1ccc(C#N)c(-c2cccc3ccccc23)c1` (stereo unspecified), the pEC50 in the data set with NIH3T3 was 6.96. The pIC50 in data set [3] is 9.70; in [4], 7.74. `CN1CCN(c2nc(COC(c3ccc(C#N)cc3)c3cncn3C)ccc2C#N)CC1` (stereo unspecified) had a negative-log IC50 (pIC50) in data set [1] of 7.24.

`Cn1cncc1C(OCc1ccc(C#N)nc1-c1cc(Cl)cc(Cl)c1)c1ccc(C#N)cc1` (stereo unspecified) gave a pEC50 in the data set on NIH3T3 of 8.22. The compound also showed a pIC50 in data set [1] of 9.35.

`Cn1cncc1C(OCc1ccc(C#N)nc1N1CCN(C(=O)OC(C)(C)C)CC1)c1ccc(C#N)cc1` (stereo unspecified): the pIC50 in data set [1] is 7.36. In the data set on NIH3T3, `CN1CCN(c2nc(COC(c3ccc(C#N)cc3)c3cncn3C)c(-c3cccc(Cl)c3)cc2C#N)CC1` (stereo unspecified) had a pEC50 of 8.70. This compound also had a pIC50 in data set [1] of 9.24. For the compound `Cn1cncc1C(OCc1ccc(C#N)c(-c2cccc(Cl)c2)n1)c1ccc(C#N)cc1` (stereo unspecified), in data set [1], the negative-log IC50 (pIC50) is 7.92. As for `Cn1cncc1C(OCc1ccc(C#N)nc1-c1cccc(Cl)c1)c1ccc(C#N)cc1` (stereo unspecified), in the data set with NIH3T3, the pEC50 is 8.74. The same compound had a pIC50 in data set [1] of 9.09. In the data set on NIH3T3, `Cn1cncc1C(OCc1ccc(C#N)cc1-c1cc(Cl)cc(Cl)c1)c1ccc(C#N)nc1` (stereo unspecified) had a pEC50 of 8.46. Besides, the pIC50 in data set [1] was 9.19. Take `Cn1cncc1C(OCc1ccc(C#N)c(-c2cccc(C#N)c2)n1)c1ccc(C#N)cc1` (stereo unspecified): the negative logarithm of the IC50 (pIC50) in data set [1] is 7.17.

`Cn1cncc1C(OCc1ccc(C#N)nc1N1CCOCC1)c1ccc(C#N)cc1` (stereo unspecified) gave a negative-log EC50 (pEC50) with NIH3T3 of 7.06. In [1], this compound had a negative-log IC50 (pIC50) of 8.72.

Consider `Cn1cncc1C(OCc1ccc(C#N)nc1-c1ccc2c(c1)OC(F)(F)O2)c1ccc(C#N)cc1` (stereo unspecified), for which the negative-log EC50 (pEC50) in the data set on NIH3T3 is 8.92. The Tmax in data set [5] came to 1 h. In addition, in [6], the concentration peaked (Cmax) at 260 ng/mL. Besides, the half-life in [7] is 7.6 h. In data set [1], this compound showed a pIC50 of 9.74. In data set [8], this compound registered an exposure (AUC) of 2800 ng·h/mL. As for `Cn1cncc1C(OCc1ccc(C#N)c(-c2ccc3ccccc3c2)n1)c1ccc(C#N)cc1` (stereo unspecified), the negative-log IC50 (pIC50) in data set [1] was 8.09. With `Cn1cncc1C(OCc1ccc(C#N)nc1-c1ccc(OC(F)(F)F)cc1)c1ccc(C#N)cc1` (stereo unspecified), the negative logarithm of the EC50 (pEC50) in the data set on NIH3T3 is 8.40. This compound also showed a negative-log IC50 (pIC50) in data set [1] of 9.29. Regarding `Cn1cncc1C(OCc1ccc(C#N)cc1-c1cc(F)cc(F)c1)c1ccc(C#N)nc1` (stereo unspecified), the negative logarithm of the EC50 (pEC50) in the data set on NIH3T3 is 7.60. In addition, the negative logarithm of the IC50 (pIC50) in data set [1] is 8.70. Compound `CC(=O)N1CCN(c2nc(COC(c3ccc(C#N)cc3)c3cncn3C)c(-c3cccc(Cl)c3)cc2C#N)CC1` (stereo unspecified) gave a pEC50 with NIH3T3 of 9.40. Further, the negative-log IC50 (pIC50) in data set [1] is 9.01. In turn, `Cn1cncc1C(OCc1cnc(C#N)cc1-c1cccc(Cl)c1)c1ccc(C#N)cc1` (stereo unspecified) gave a pEC50 with NIH3T3 of 7.77. For the same compound, the pIC50 in data set [1] was 8.74. For the compound `Cn1cncc1C(OCc1ncc(C#N)cc1-c1cccc(Cl)c1)c1ccc(C#N)cc1` (stereo unspecified), in the data set on NIH3T3, the pEC50 was 8.00. Further, the pIC50 in [1] is 9.04. In the same order, the values of `Cn1cncc1C(OCc1nc(N2CCC(O)CC2)c(C#N)cc1-c1cccc(Cl)c1)c1ccc(C#N)cc1` (stereo unspecified) are 8.44 and 9.29. Regarding `Cn1cncc1C(OCc1ccc(C#N)nc1-c1ccccc1)c1ccc(C#N)cc1` (stereo unspecified), the negative-log EC50 (pEC50) in the data set on NIH3T3 was 7.72. The same compound had a pIC50 in data set [1] of 8.41.

With `Cn1cncc1C(OCc1nc(N2CCOCC2)c(C#N)cc1-c1cccc(Cl)c1)c1ccc(C#N)cc1` (stereo unspecified), the pEC50 in the data set with NIH3T3 was 8.92. The same compound gave a pIC50 in [1] of 9.60. In the same order, the values of `Cn1cncc1C(OCc1ccc(C#N)cc1-c1cccc2ccccc12)c1ccc(C#N)nc1` (stereo unspecified) are 7.34 and 8.77. In the same order, the values of `COc1cccc(-c2cc(C#N)ccc2COC(c2ccc(C#N)cc2)c2cncn2C)c1` (stereo unspecified) are 8.92 and 9.21.
